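Cultured in 96-well plates, cells were exposed to test compound for 48 hours across five concentrations. TGI: total growth inhibition.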
Experiments:
Test in all cases: growth of human tumour cells (NCI), 48 h
BT-549 breast = tested on: BT-549 breast
MALME-3M melanoma = tested on: MALME-3M melanoma
EKVX NSCLC = tested on: EKVX NSCLC
LOX IMVI melanoma = tested on: LOX IMVI melanoma
K-562 leukemia = tested on: K-562 leukemia
PC-3 prostate = tested on: PC-3 prostate
MDA-N = tested on: MDA-N
NCI-H522 lung = tested on: NCI-H522 lung
NCI-H460 lung = tested on: NCI-H460 lung
A549 NSCLC = tested on: A549 NSCLC
HS 578T breast = tested on: HS 578T breast
SK-MEL-5 melanoma = tested on: SK-MEL-5 melanoma
SK-OV-3 ovarian = tested on: SK-OV-3 ovarian
SN12C renal = tested on: SN12C renal
786-0 renal = tested on: 786-0 renal
RPMI-8226 leukemia = tested on: RPMI-8226 leukemia
HOP-92 NSCLC = tested on: HOP-92 NSCLC
M14 melanoma = tested on: M14 melanoma
NCI/ADR-RES ovarian = tested on: NCI/ADR-RES ovarian
OVCAR-5 ovarian = tested on: OVCAR-5 ovarian
SR leukemia = tested on: SR leukemia
HCC-2998 colon = tested on: HCC-2998 colon
HL-60(TB) leukemia = tested on: HL-60(TB) leukemia
OVCAR-4 ovarian = tested on: OVCAR-4 ovarian
SW-620 colon = tested on: SW-620 colon
RXF 393 renal = tested on: RXF 393 renal
SNB-75 CNS = tested on: SNB-75 CNS
SK-MEL-2 melanoma = tested on: SK-MEL-2 melanoma
CCRF-CEM leukemia = tested on: CCRF-CEM leukemia
CAKI-1 renal = tested on: CAKI-1 renal
HT29 colon = tested on: HT29 colon
UACC-62 melanoma = tested on: UACC-62 melanoma
DU-145 prostate = tested on: DU-145 prostate
HCT-116 colon = tested on: HCT-116 colon
UACC-257 melanoma = tested on: UACC-257 melanoma
KM12 colon = tested on: KM12 colon
MOLT-4 leukemia = tested on: MOLT-4 leukemia
MDA-MB-231 breast = tested on: MDA-MB-231 breast
UO-31 renal = tested on: UO-31 renal
SF-268 CNS = tested on: SF-268 CNS
TK-10 renal = tested on: TK-10 renal
COLO 205 colon = tested on: COLO 205 colon
SK-MEL-28 melanoma = tested on: SK-MEL-28 melanoma
T-47D breast = tested on: T-47D breast
HOP-62 NSCLC = tested on: HOP-62 NSCLC
OVCAR-8 ovarian = tested on: OVCAR-8 ovarian
IGROV1 ovarian = tested on: IGROV1 ovarian
OVCAR-3 ovarian = tested on: OVCAR-3 ovarian
A498 renal = tested on: A498 renal
HCT-15 colon = tested on: HCT-15 colon
MDA-MB-435 = tested on: MDA-MB-435
SF-295 CNS = tested on: SF-295 CNS
U251 CNS = tested on: U251 CNS
MCF7 breast = tested on: MCF7 breast
NCI-H23 lung = tested on: NCI-H23 lung
ACHN renal = tested on: ACHN renal
SNB-19 CNS = tested on: SNB-19 CNS
NCI-H226 lung = tested on: NCI-H226 lung
SF-539 CNS = tested on: SF-539 CNS

Cn1c2ccccc2n2c(N=O)c(-c3ccccc3)nc12 was tested, and the TGI (BT-549 breast) was 96.6 µM, the TGI (MALME-3M melanoma) was over 100 µM and the TGI (EKVX NSCLC) was over 100 µM. It also gave a TGI (LOX IMVI melanoma) of over 100 µM, a TGI (K-562 leukemia) of over 100 µM and a TGI (PC-3 prostate) of over 100 µM. For the same compound, the TGI (MDA-N) was over 100 µM, the TGI (NCI-H522 lung) was over 100 µM and the TGI (NCI-H460 lung) was 48.3 µM. The TGI (A549 NSCLC) was 57.6 µM, the TGI (HS 578T breast) was over 100 µM and the TGI (SK-MEL-5 melanoma) was 34.1 µM. The TGI (SK-OV-3 ovarian) was over 100 µM, the TGI (SN12C renal) was over 100 µM and the TGI (786-0 renal) was over 100 µM. It also gave a TGI (RPMI-8226 leukemia) of over 100 µM, a TGI (HOP-92 NSCLC) of over 100 µM and a TGI (M14 melanoma) of 62.2 µM. It also gave a TGI (NCI/ADR-RES ovarian) of over 100 µM, a TGI (OVCAR-5 ovarian) of over 100 µM and a TGI (SR leukemia) of over 100 µM. For the same compound, the TGI (HCC-2998 colon) was 28.3 µM, the TGI (HL-60(TB) leukemia) was over 100 µM and the TGI (OVCAR-4 ovarian) was over 100 µM. The TGI (SW-620 colon) was over 100 µM, the TGI (RXF 393 renal) was over 100 µM and the TGI (SNB-75 CNS) was 49.8 µM. It also gave a TGI (SK-MEL-2 melanoma) of over 100 µM, a TGI (CCRF-CEM leukemia) of over 100 µM and a TGI (CAKI-1 renal) of over 100 µM. For the same compound, the TGI (HT29 colon) was over 100 µM, the TGI (UACC-62 melanoma) was over 100 µM and the TGI (DU-145 prostate) was over 100 µM. For the same compound, the TGI (HCT-116 colon) was over 100 µM, the TGI (UACC-257 melanoma) was over 100 µM and the TGI (KM12 colon) was 69.8 µM. The TGI (MOLT-4 leukemia) was over 100 µM, the TGI (MDA-MB-231 breast) was over 100 µM and the TGI (UO-31 renal) was over 100 µM. For the same compound, the TGI (SF-268 CNS) was over 100 µM, the TGI (TK-10 renal) was over 100 µM and the TGI (COLO 205 colon) was 22.6 µM. The TGI (SK-MEL-28 melanoma) was over 100 µM, the TGI (T-47D breast) was over 100 µM and the TGI (HOP-62 NSCLC) was 27.6 µM. It also gave a TGI (OVCAR-8 ovarian) of over 100 µM, a TGI (IGROV1 ovarian) of over 100 µM and a TGI (OVCAR-3 ovarian) of over 100 µM. It also gave a TGI (A498 renal) of over 100 µM, a TGI (HCT-15 colon) of over 100 µM and a TGI (MDA-MB-435) of over 100 µM. It also gave a TGI (SF-295 CNS) of over 100 µM, a TGI (U251 CNS) of over 100 µM and a TGI (MCF7 breast) of over 100 µM. The TGI (NCI-H23 lung) was over 100 µM, the TGI (ACHN renal) was over 100 µM and the TGI (SNB-19 CNS) was over 100 µM.
CN(CCCCCl)P(=O)(OCc1ccc([N+](=O)[O-])o1)OC[C@H]1O[C@@H](n2cc(F)c(=O)[nH]c2=O)C[C@@H]1O (some centres not stated) was tested, and the TGI (BT-549 breast) was 49.1 µM, the TGI (MALME-3M melanoma) was 36.1 µM and the TGI (EKVX NSCLC) was over 100 µM. It also gave a TGI (LOX IMVI melanoma) of 12.9 µM, a TGI (K-562 leukemia) of over 59.4 µM and a TGI (PC-3 prostate) of over 56.1 µM. It also gave a TGI (MDA-N) of 33.3 µM, a TGI (NCI-H522 lung) of 19.5 µM and a TGI (NCI-H460 lung) of 45.5 µM. It also gave a TGI (A549 NSCLC) of over 26.4 µM, a TGI (HS 578T breast) of 8.68 µM and a TGI (SK-MEL-5 melanoma) of 12.9 µM. It also gave a TGI (SK-OV-3 ovarian) of 34.1 µM, a TGI (SN12C renal) of 9.07 µM and a TGI (786-0 renal) of over 80.1 µM. For the same compound, the TGI (RPMI-8226 leukemia) was 38.4 µM, the TGI (HOP-92 NSCLC) was 20.3 µM and the TGI (M14 melanoma) was 20 µM. The TGI (NCI/ADR-RES ovarian) was 36.3 µM, the TGI (OVCAR-5 ovarian) was over 100 µM and the TGI (SR leukemia) was 24.2 µM. For the same compound, the TGI (NCI-H226 lung) was over 86.6 µM, the TGI (HL-60(TB) leukemia) was over 23.6 µM and the TGI (OVCAR-4 ovarian) was 33.5 µM. For the same compound, the TGI (SW-620 colon) was over 81.8 µM, the TGI (RXF 393 renal) was 17.4 µM and the TGI (SNB-75 CNS) was 6.95 µM. The TGI (SK-MEL-2 melanoma) was 36.1 µM, the TGI (CCRF-CEM leukemia) was 20.7 µM and the TGI (HT29 colon) was over 100 µM. The TGI (UACC-62 melanoma) was 6.48 µM, the TGI (DU-145 prostate) was 40.2 µM and the TGI (HCT-116 colon) was over 43.8 µM. The TGI (UACC-257 melanoma) was over 68 µM, the TGI (KM12 colon) was 28.7 µM and the TGI (MOLT-4 leukemia) was over 46.1 µM. For the same compound, the TGI (MDA-MB-231 breast) was 34.2 µM, the TGI (UO-31 renal) was over 100 µM and the TGI (SF-268 CNS) was 13.2 µM. It also gave a TGI (TK-10 renal) of over 79.8 µM, a TGI (COLO 205 colon) of 16.5 µM and a TGI (SK-MEL-28 melanoma) of over 61.3 µM. It also gave a TGI (T-47D breast) of 5.41 µM, a TGI (HOP-62 NSCLC) of 25.6 µM and a TGI (OVCAR-8 ovarian) of over 100 µM. It also gave a TGI (IGROV1 ovarian) of over 63.5 µM, a TGI (OVCAR-3 ovarian) of 19.1 µM and a TGI (A498 renal) of 0.0982 µM. It also gave a TGI (HCT-15 colon) of over 100 µM, a TGI (MDA-MB-435) of 39 µM and a TGI (SF-295 CNS) of 3.48 µM. The TGI (U251 CNS) was 34.6 µM, the TGI (MCF7 breast) was 4.45 µM and the TGI (NCI-H23 lung) was 20.5 µM. It also gave a TGI (SF-539 CNS) of 0.217 µM, a TGI (ACHN renal) of over 100 µM and a TGI (SNB-19 CNS) of over 55.3 µM.
C=CCOc1cccc(C2(O)c3ccccc3C3=NCCCN32)c1 (configuration not stated) showed a TGI (BT-549 breast) of over 100 µM, a TGI (MALME-3M melanoma) of 35.1 µM and a TGI (EKVX NSCLC) of over 35.1 µM. The TGI (LOX IMVI melanoma) was 29.4 µM, the TGI (K-562 leukemia) was over 35.4 µM and the TGI (PC-3 prostate) was over 44.4 µM. For the same compound, the TGI (MDA-N) was 33.1 µM, the TGI (NCI-H522 lung) was 41.4 µM and the TGI (NCI-H460 lung) was 36.7 µM. For the same compound, the TGI (A549 NSCLC) was over 39.4 µM, the TGI (HS 578T breast) was over 78.4 µM and the TGI (SK-MEL-5 melanoma) was 41.9 µM. It also gave a TGI (SK-OV-3 ovarian) of over 100 µM, a TGI (SN12C renal) of over 68.8 µM and a TGI (786-0 renal) of 25.2 µM. The TGI (RPMI-8226 leukemia) was 40.3 µM, the TGI (HOP-92 NSCLC) was over 82.6 µM and the TGI (M14 melanoma) was 26.1 µM. The TGI (NCI/ADR-RES ovarian) was over 75.6 µM, the TGI (OVCAR-5 ovarian) was over 77.9 µM and the TGI (SR leukemia) was 32.6 µM. The TGI (HCC-2998 colon) was 29.6 µM, the TGI (NCI-H226 lung) was over 31.6 µM and the TGI (HL-60(TB) leukemia) was over 35.6 µM. It also gave a TGI (OVCAR-4 ovarian) of over 80.1 µM, a TGI (SW-620 colon) of 28.7 µM and a TGI (SNB-75 CNS) of 36.8 µM. For the same compound, the TGI (SK-MEL-2 melanoma) was 17.5 µM, the TGI (CCRF-CEM leukemia) was 40.9 µM and the TGI (CAKI-1 renal) was over 86.6 µM. It also gave a TGI (HT29 colon) of 27.2 µM, a TGI (UACC-62 melanoma) of 31.6 µM and a TGI (DU-145 prostate) of over 100 µM. It also gave a TGI (HCT-116 colon) of 29.6 µM, a TGI (UACC-257 melanoma) of 33.1 µM and a TGI (KM12 colon) of 24.7 µM. It also gave a TGI (MOLT-4 leukemia) of 40 µM, a TGI (MDA-MB-231 breast) of over 100 µM and a TGI (UO-31 renal) of 29.4 µM. For the same compound, the TGI (SF-268 CNS) was over 100 µM, the TGI (TK-10 renal) was over 100 µM and the TGI (COLO 205 colon) was 33.5 µM. It also gave a TGI (SK-MEL-28 melanoma) of 24.7 µM, a TGI (T-47D breast) of 45.5 µM and a TGI (HOP-62 NSCLC) of 38.8 µM. It also gave a TGI (OVCAR-8 ovarian) of over 43.2 µM, a TGI (IGROV1 ovarian) of over 37.4 µM and a TGI (OVCAR-3 ovarian) of 10.4 µM. For the same compound, the TGI (A498 renal) was 53.2 µM, the TGI (HCT-15 colon) was over 50 µM and the TGI (MDA-MB-435) was 26 µM. The TGI (SF-295 CNS) was 7.83 µM, the TGI (U251 CNS) was 32.5 µM and the TGI (MCF7 breast) was 32 µM. For the same compound, the TGI (NCI-H23 lung) was over 47.2 µM, the TGI (SF-539 CNS) was 37.6 µM and the TGI (ACHN renal) was 26.5 µM. It also gave a TGI (SNB-19 CNS) of 18.4 µM.
